The text below walks through data of US7842479B2 (priority 2004, dated 2010).

Each structure is given as a SMILES string. “Also recorded” adds a separate entry of the source. Counter-ions that a name gives are not always drawn. Like-named read-outs stand apart in the source and are kept apart here.

Data set [1] relates to cidABC and lrgAB transcription. The class given is cell-based, S. aureus.
Data set [2] deals with cidC-encoded pyruvate oxidase. The class given is biochemical, S. aureus.
For the next data set, the system named is S. aureus UAMS-1. The class given is cell-based.
In data set [3] the test system is S. aureus KB1050 (cidA mutant). The class given is cell-based.
Data set [4] has as its system SH1000 strain. The class given is cell-based.
Data set [5] relates to 8325-4 strain. The class given is cell-based.
Data set [6] concerns SH1000 strain. The class given is cell-based. The source holds these as a separate data set.
Data set [7] deals with 8325-4 strain.

On to `Cl` [HCl], for which the “cidABC and lrgAB expression” value in data set [1] (pH 5) is “elevated the expression of cidABC relative to growth in neutral media”.
Regarding `CC(=O)[O-].[Na+]` [Na-acetate, sodium acetate], the “cidABC and lrgAB expression” value in data set [1] (pH 4.5) is “dramatically increased”; in data set [1] (pH 6.5), “undetectable”.
Turning to `[Cl-].[Na+]` [NaCl, sodium chloride], the “cidABC and lrgAB expression” value in [1] (pH 4.5) is on record as “not detected at any of the pH values tested”.
Consider `CC(=O)O` [acetic acid], for which, in data set [1], the cidABC expression result was “dramatically increased expression of cidABC”. Besides, the “cidABC and lrgAB expression” value in data set [1] (pH 5) was “pronounced positive effect on both cidABC and lrgAB expression”. In addition, in the data set with alsSD transcription, the alsSD expression result was “dramatically increased expression of alsSD at all time points tested”.
For the compound `OCC(O)CO` [glycerol], the “pyruvate oxidase activity with carbon source added instead of sodium pyruvate” value in [2] is on record as “the only one that possessed activity was the phosphoenol pyruvate”.
Still for that read-out and setting: next, `C=C(OP(=O)(O)O)C(=O)O` [phosphoenol pyruvate]: “approximately half of what was seen with sodium pyruvate”; `CC(=O)[O-].[K+]` [potassium acetate]: “the only one that possessed activity was the phosphoenol pyruvate”.
For `CO[C@H]1/C=C/O[C@@]2(C)Oc3c(C)c(O)c4c(O)c(c(/C=N/N5CCN(C)CC5)c(O)c4c3C2=O)NC(=O)/C(C)=C\C=C\[C@H](C)[C@H](O)[C@@H](C)[C@@H](O)[C@@H](C)[C@H](OC(C)=O)[C@@H]1C` [rifampin], the “decrease in viable cell counts” value with S. aureus UAMS-1 is on record as “three log decrease in viable cell counts; also recorded: just over one log decrease”. Further, the “rifampin sensitivity relative to UAMS-1” value in data set [3] is “decreased rifampin sensitivity relative to UAMS-1”. Besides, the “viable cell counts compared to UAMS-1 after incubation with rifampin” value in data set [3] is on record as “greater than one log unit higher viable cell counts”. Further, the “loss of viable cell counts” value in the data set with SH1000 strain [4] and in the data set on 8325-4 strain [5] was “lose two log units of viable cell counts” throughout. The loss of viability result in the data set with SH1000 strain [6] is reported as “two log loss of viability”. Moreover, in the data set on 8325-4 strain [7], the “difference in viable cell counts determined using the two methods” value is on record as “greater than 1,000 fold”. For the same compound, in the data set with 8325-4 strain [7] (Staphylococcus aureus), the viability (usually a read-out of living cells in per cent, often relative to untreated cells) is reported as roughly 100%.
On to `CC(O)C(=O)[O-].[Na+]` (stereo not shown) [sodium lactate], for which the “pyruvate oxidase activity with carbon source added instead of sodium pyruvate” value in data set [2] is given as “the only one that possessed activity was the phosphoenol pyruvate”.
